Experimental data from PMC5812247, “Engineering thermal stability and solvent tolerance of the soluble quinoprotein PedE from Pseudomonas putida KT2440 with a heterologous whole‐cell screening approach” (Microbial Biotechnology, 2017).

Target: T1, PedE (Pseudomonas putida, UniProt Q88JH5)
T1 construct: C-terminal 6xHis tag, expressed in E. coli BL21(DE3), purified by IMAC, PQQ/Ca2+-dependent periplasmic enzyme
T1 sequence (Q88JH5 34-631): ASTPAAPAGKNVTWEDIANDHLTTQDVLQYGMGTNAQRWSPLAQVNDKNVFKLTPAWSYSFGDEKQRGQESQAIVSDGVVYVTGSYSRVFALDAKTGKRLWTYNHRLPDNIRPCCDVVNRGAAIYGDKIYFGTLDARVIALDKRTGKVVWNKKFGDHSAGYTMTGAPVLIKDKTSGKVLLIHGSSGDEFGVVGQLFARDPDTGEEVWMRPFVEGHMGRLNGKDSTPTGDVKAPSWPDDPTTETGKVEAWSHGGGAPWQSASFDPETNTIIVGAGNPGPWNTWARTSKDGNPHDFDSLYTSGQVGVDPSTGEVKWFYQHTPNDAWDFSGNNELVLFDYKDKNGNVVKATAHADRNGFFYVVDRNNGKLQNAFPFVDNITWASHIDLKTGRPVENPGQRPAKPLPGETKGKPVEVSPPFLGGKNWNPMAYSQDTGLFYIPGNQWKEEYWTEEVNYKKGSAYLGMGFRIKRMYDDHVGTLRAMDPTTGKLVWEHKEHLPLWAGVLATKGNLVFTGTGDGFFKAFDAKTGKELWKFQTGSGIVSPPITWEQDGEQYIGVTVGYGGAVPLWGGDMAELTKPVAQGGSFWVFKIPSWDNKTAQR
Assay: residual activity after […] h at […]°C, apo vs PQQ/CaCl2-reconstituted enzyme
Format: biochemical
Conditions: reconstitution with 10 μM PQQ and 10 mM CaCl2, Tris pH 7.5; ethanol 10 mM as substrate

Question: How did the “residual activity after 1 h at 45°C, apo vs PQQ/CaCl2-reconstituted enzyme” value turn out when O=C(O)c1cc(C(=O)O)c2c(n1)C(=O)C(=O)c1cc(C(=O)O)[nH]c1-2 [PQQ] was run?
Answer: The value was “purified apo‐form of PedE is much less thermostable compared with the PQQ reconstituted form”.
